Experimental data published in ChEMBL document CHEMBL1134059, “Synthesis and antifungal activities of novel 1,3-beta-D-glucan synthase inhibitors. Part 2” (Bioorg Med Chem Lett, 2001).
Converted amounts (≈) assume the structure as drawn. Numbered stars: 1 amine (or outer) side, 2 acyl side, 3 side chain; on linkers, the order of the positions; unused ones are H or OH. Bridge positions count the residues as written; N and C are the ends. Square brackets hold non-standard residues; d marks the D form. Peptide text beside a SMILES is read from it. * marks the point of attachment. pTerphenylCO(4''-OnC5H11) = CCCCCOc1ccc(-c2ccc(-c3ccc(C(=O)*)cc3)cc2)cc1; Orn(4R-OH,5R-OH) = O=C([C@H](C[C@@H](O)[C@@H](O)N[*:3])N[*:1])[*:2]; hTyr(3S-OH,4S-OH) = N[C@H](C(=O)O)[C@H](O)[C@@H](O)c1ccc(O)cc1; Pro(3S-OH,4S-Me) = C[C@H]1CN[C@H](C(=O)O)[C@H]1O; Gln(3R-OH) = NC(=O)C[C@@H](O)[C@H](N)C(=O)O; X1 = CCCCCCCCCCCCC[C@H](CC(=O)[*:1])O[*:2]; Pro(3S-OH) = O=C(O)[C@H]1NCC[C@@H]1O; d(aThr) = C[C@@H](O)[C@@H](N)C(=O)O; Hyp = O=C(O)[C@@H]1C[C@@H](O)CN1; Orn = NCCC[C@H](N)C(=O)O

Legend:
[1] = target: Beta-1,3-glucan synthase (Candida albicans, UniProt O13428); test: In vitro inhibitory activity against Beta glucan synthase
Chain of Beta-1,3-glucan synthase (O13428 whole entry): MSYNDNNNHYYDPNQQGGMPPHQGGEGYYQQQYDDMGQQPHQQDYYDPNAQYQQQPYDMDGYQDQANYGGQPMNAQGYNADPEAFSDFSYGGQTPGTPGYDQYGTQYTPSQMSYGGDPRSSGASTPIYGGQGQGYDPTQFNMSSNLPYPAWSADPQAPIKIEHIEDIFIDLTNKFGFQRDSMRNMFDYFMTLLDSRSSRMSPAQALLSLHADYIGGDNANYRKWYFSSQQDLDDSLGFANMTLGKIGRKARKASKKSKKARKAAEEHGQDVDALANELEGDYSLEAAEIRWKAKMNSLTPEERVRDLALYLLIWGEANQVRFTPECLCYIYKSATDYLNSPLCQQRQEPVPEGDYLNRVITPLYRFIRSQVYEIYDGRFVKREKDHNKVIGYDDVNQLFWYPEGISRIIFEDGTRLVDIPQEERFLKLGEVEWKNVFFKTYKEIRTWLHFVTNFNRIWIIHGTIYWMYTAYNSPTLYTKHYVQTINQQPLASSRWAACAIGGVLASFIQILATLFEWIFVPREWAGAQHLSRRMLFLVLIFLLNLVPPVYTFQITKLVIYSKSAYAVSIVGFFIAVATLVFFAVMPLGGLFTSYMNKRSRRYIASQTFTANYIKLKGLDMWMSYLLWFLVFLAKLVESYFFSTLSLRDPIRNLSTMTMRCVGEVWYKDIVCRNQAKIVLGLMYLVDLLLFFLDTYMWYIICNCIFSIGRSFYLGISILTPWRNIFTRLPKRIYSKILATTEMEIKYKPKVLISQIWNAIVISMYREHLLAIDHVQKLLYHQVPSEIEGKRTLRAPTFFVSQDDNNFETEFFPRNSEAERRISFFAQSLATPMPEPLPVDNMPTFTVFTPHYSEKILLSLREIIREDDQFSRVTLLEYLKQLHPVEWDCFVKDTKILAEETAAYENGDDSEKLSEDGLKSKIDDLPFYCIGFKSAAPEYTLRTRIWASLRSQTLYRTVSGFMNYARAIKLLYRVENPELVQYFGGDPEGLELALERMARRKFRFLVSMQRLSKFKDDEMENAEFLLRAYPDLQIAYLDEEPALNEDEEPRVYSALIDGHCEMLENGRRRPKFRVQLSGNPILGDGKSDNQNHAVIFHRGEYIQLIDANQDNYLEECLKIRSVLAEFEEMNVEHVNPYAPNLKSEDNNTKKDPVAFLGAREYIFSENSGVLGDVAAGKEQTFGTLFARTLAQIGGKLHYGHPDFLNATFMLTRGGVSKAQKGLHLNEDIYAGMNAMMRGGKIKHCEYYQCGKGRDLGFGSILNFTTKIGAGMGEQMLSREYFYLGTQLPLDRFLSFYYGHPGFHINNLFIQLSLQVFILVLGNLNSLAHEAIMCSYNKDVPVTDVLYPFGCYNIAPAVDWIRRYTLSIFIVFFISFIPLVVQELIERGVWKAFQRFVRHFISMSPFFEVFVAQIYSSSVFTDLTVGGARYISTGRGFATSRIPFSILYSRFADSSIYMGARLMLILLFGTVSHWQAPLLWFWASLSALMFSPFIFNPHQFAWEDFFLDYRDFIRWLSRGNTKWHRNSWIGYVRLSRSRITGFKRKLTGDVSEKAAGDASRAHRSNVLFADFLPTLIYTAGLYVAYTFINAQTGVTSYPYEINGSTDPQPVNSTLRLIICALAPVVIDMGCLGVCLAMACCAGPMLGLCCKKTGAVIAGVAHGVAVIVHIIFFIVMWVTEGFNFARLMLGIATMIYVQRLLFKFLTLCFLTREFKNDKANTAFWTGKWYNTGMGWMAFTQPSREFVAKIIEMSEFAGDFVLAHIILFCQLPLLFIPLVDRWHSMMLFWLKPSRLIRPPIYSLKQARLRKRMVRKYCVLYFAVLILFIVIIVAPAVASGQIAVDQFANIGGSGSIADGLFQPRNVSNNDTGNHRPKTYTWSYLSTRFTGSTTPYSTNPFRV

[2] = system: Candida albicans; test: Antifungal activity against Candida albicans KB fluconazole resistant strain.; assay type: functional
[3] = system: Candida tropicalis; test: Antifungal activity against Candida tropicalis ATCC 13803; assay type: functional
[4] = system: Mus musculus; test: In vivo efficacy against Aspergillus fumigatus CF1083 1E4 conidia/g for pulmonary aspergillosis in mice after iv treatment on day 14; assay type: functional; conditions: 336 h
[5] = system: Candida albicans; test: In vitro antifungal activity against Candida albicans CY1002 using 80 percent serum; assay type: functional, organism-based
[6] = system: Aspergillus fumigatus; test: Antifungal activity against Aspergillus fumigatus MTU06002; assay type: functional
[7] = system: Candida albicans; test: In vitro antifungal activity against Candida albicans CY1002; assay type: functional, organism-based
[8] = system: Candida albicans; test: Antifungal activity against Candida albicans ATCC 48130; assay type: functional
[9] = species on record: Mus musculus; test: Hepatotoxicity using inclusion-body formation test in hepatocytes of mice; assay type: functional, Hepatocyte
[10] = system: Mus musculus; test: In vivo efficacy against Candida albicans CY1002 5E6 cells for systemic candidiasis in mice after iv treatment on day 7; assay type: functional; conditions: CY1002 5E6, iv, 168 h
[11] = system: Pichia kudriavzevii; test: Antifungal activity against Candida krusei ATCC 20579; assay type: functional
[12] = system: Nakaseomyces glabratus; test: Antifungal activity against Candida glabrata ATCC 2001; assay type: functional
[13] = system: Lomentospora prolificans; test: Antifungal activity against Scedosporium prolificans ATCC 20054; assay type: functional
[14] = system: Scedosporium boydii; test: Antifungal activity against Scedosporium […] IFM40731N.; assay type: functional

| Compound | IC50 [1] | MIC [2] | MIC [3] | ED50 [4] | IC50 [5] | MIC [6] | IC50 [7] | MIC [8] | Observed at [9] | ED50 [10] | MIC [11] | MIC [12] | MIC [13] | MIC [14] |
| --- | --- | --- | --- | --- | --- | --- | --- | --- | --- | --- | --- | --- | --- | --- |
| CC[C@H](C)C[C@H](C)CCCCCCCCC(=O)N[C@H]1C[C@@H](O)[C@@H](NCCN)NC(=O)[C@@H]2[C@@H](O)CCN2C(=O)[C@H]([C@H](O)CCN)NC(=O)[C@H]([C@H](O)[C@@H](O)c2ccc(O)cc2)NC(=O)[C@@H]2C[C@@H](O)CN2C(=O)[C@H]([C@@H](C)O)NC1=O | 1.3 nM | – | – | – | – | – | – | – | – | – | – | – | – | – |
| CCCCCCCCCCCCC[C@@H]1CC(=O)N[C@@H]([C@@H](C)O)C(=O)N[C@H](C)C(=O)N[C@@H](Cc2ccc(O)cc2)C(=O)N[C@@H](C(C)C)C(=O)N2C[C@H](O)C[C@H]2C(=O)N[C@@H]([C@@H](C)O)C(=O)N[C@@H]([C@@H](C)O)C(=O)N2CC[C@H](O)[C@H]2C(=O)N[C@@H]([C@H](O)CC(N)=O)C(=O)NCC(=O)N[C@@H]([C@@H](C)O)C(=O)N[C@@H](CCCNC(=O)[C@@H](CCCN)N(CCN)CCN)C(=O)O1 | 0.63 nM | 0.68 µg/mL (≈ 0.392 µM) | 0.35 µg/mL (≈ 0.202 µM) | 11.6 mg/kg | 0.31 µg/mL (≈ 0.179 µM) | 0.67 µg/mL (≈ 0.386 µM) | 0.31 µg/mL (≈ 0.179 µM) | 0.31 µg/mL (≈ 0.179 µM) | 30 µg/mL | 0.13 mg/kg | 0.54 µg/mL (≈ 0.311 µM) | 1.4 µg/mL (≈ 0.807 µM) | – | – |
| CCCCCCCCCCCCC[C@@H]1CC(=O)N[C@H]([C@@H](C)O)C(=O)N[C@H](C)C(=O)N[C@@H](Cc2ccc(O)cc2)C(=O)N[C@@H](C(C)C)C(=O)N2C[C@H](O)C[C@H]2C(=O)N[C@H]([C@@H](C)O)C(=O)N[C@@H]([C@@H](C)O)C(=O)N2CC[C@H](O)[C@H]2C(=O)N[C@@H]([C@H](O)CC(N)=O)C(=O)NCC(=O)N[C@H]([C@@H](C)O)C(=O)N[C@@H](CCCN)C(=O)O1 [FR-901469] ([d(aThr)][dA]YV[Hyp][d(aThr)]T[Pro(3S-OH)][Gln(3R-OH)]G[d(aThr)][Orn]; linker N-C via X1) | 8.5 nM | – | – | > 15 mg/kg | 0.54 µg/mL (≈ 0.352 µM) | – | 0.07 µg/mL (≈ 0.0456 µM) | – | 10 µg/mL | 0.22 mg/kg | – | – | – | – |
| CCCCCCCCCCCCC[C@@H]1CC(=O)N[C@H]([C@@H](C)O)C(=O)N[C@H](C)C(=O)N[C@@H](Cc2ccc(O)cc2)C(=O)N[C@@H](C(C)C)C(=O)N2C[C@H](O)C[C@H]2C(=O)N[C@H]([C@@H](C)O)C(=O)N[C@@H]([C@@H](C)O)C(=O)N2CC[C@H](O)[C@H]2C(=O)N[C@@H]([C@H](O)CC(N)=O)C(=O)NCC(=O)N[C@H]([C@@H](C)O)C(=O)N[C@@H](CCCNC(=O)[C@H](N)CCCN)C(=O)O1 | 3.6 nM | – | – | – | 0.33 µg/mL (≈ 0.2 µM) | – | 0.12 µg/mL (≈ 0.0728 µM) | – | 30 µg/mL | 0.1 mg/kg | – | – | – | – |
| CCCCCCCCCCCCC[C@@H]1CC(=O)N[C@H]([C@@H](C)O)C(=O)N[C@H](C)C(=O)N[C@@H](Cc2ccc(O)cc2)C(=O)N[C@@H](C(C)C)C(=O)N2C[C@H](O)C[C@H]2C(=O)N[C@H]([C@@H](C)O)C(=O)N[C@@H]([C@@H](C)O)C(=O)N2CC[C@H](O)[C@H]2C(=O)N[C@@H]([C@H](O)CC(N)=O)C(=O)NCC(=O)N[C@H]([C@@H](C)O)C(=O)N[C@@H](CCCN(CCCN)C(=O)[C@@H](CCCN)N(CCN)CCN)C(=O)O1 | 0.25 nM | 0.31 µg/mL (≈ 0.173 µM) | 0.56 µg/mL (≈ 0.313 µM) | 5.8 mg/kg | 0.26 µg/mL (≈ 0.145 µM) | 0.58 µg/mL (≈ 0.324 µM) | 0.39 µg/mL (≈ 0.218 µM) | 0.37 µg/mL (≈ 0.207 µM) | 100 µg/mL | 0.12 mg/kg | 0.28 µg/mL (≈ 0.156 µM) | 1.2 µg/mL (≈ 0.67 µM) | 0.37 µg/mL (≈ 0.207 µM) | 0.37 µg/mL (≈ 0.207 µM) |
| CCCCCOc1ccc(-c2ccc(-c3ccc(C(=O)N[C@H]4C[C@@H](O)[C@@H](O)NC(=O)[C@@H]5[C@@H](O)[C@@H](C)CN5C(=O)[C@H]([C@@H](C)O)NC(=O)[C@H]([C@H](O)[C@@H](O)c5ccc(O)cc5)NC(=O)[C@@H]5C[C@@H](O)CN5C(=O)[C@H]([C@@H](C)O)NC4=O)cc3)cc2)cc1 ({pTerphenylCO(4''-OnC5H11)}-[Orn(4R-OH,5R-OH)]T[Hyp][hTyr(3S-OH,4S-OH)]T[Pro(3S-OH,4S-Me)]; lactam 1-C) | – | – | – | – | 0.55 µg/mL (≈ 0.482 µM) | – | 0.014 µg/mL (≈ 0.0123 µM) | – | – | – | – | – | – | – |
| CCCCCCCCCCCCC[C@@H]1CC(=O)N[C@@H]([C@@H](C)O)C(=O)N[C@H](C)C(=O)N[C@@H](Cc2ccc(O)cc2)C(=O)N[C@@H](C(C)C)C(=O)N2C[C@H](O)C[C@H]2C(=O)N[C@@H]([C@@H](C)O)C(=O)N[C@@H]([C@@H](C)O)C(=O)N2CC[C@H](O)[C@H]2C(=O)N[C@@H]([C@H](O)CC(N)=O)C(=O)NCC(=O)N[C@@H]([C@@H](C)O)C(=O)N[C@@H](CCCN(CCCN)C(=O)[C@@H](N)CCCN)C(=O)O1 | 0.89 nM | – | – | 8.7 mg/kg | 0.27 µg/mL (≈ 0.158 µM) | – | 0.47 µg/mL (≈ 0.276 µM) | – | 30 µg/mL | 0.07 mg/kg | – | – | – | – |
